The text below walks through data of patent publication US20210115104A1, “AMYLIN ANALOGUES” (Zealand Pharma A/S, priority 2015, published 2021).

*1 amine or outer side, *2 acyl side, *3 side chain or, on linkers, in order; H or OH if unused. Where a SMILES comes first, the peptide text is derived from it. Bridges are numbered along the chain shown (N, C = ends). [ ]: non-standard residue; d: D form. The star is where a group is joined. C20 diacid = O=C(O)CCCCCCCCCCCCCCCCCCC(=O)*; γGlu = O=C(O)[C@H](CCC(=O)[*:2])N[*:1]; Hyp = O=C(O)[C@@H]1C[C@@H](O)CN1; NMeI = CC[C@H](C)[C@H](NC)C(=O)O; Sar = CNCC(=O)O

Broadly, the EC50 is the concentration at which the effect is half-maximal.

A short description of data set [1]: Assessment of physical stability (Thioflavin T fibrillation). Also noted: key: FND = fibrillation not detected; FD = fibrillation detected. The conditions noted are these: 1 mg/ml, 40° C., ThT; for Fibrillation pH 4.0 (Ac): 50 mM acetate buffer pH 4.0, 96 hours; for Fibrillation pH 7.0 (His): 50 mM histidine buffer pH 7.0, 96 hours; for Fibrillation pH 7.0 (Phos.): 50 mM phosphate buffer pH 7.0, 96 hours. In kind it is physicochemical. In outline:
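Fibrillation lag-time, in hours, taken where regressions of the initial stable phase and the growth phase intersect. ThT (40 μM) fluorescence monitored at 40 °C for 96 h, 10-min reads each preceded by 300 s mixing. Peptide at 1 mg/ml in 50 mM buffers: phosphate or histidine pH 7.0, acetate pH 4.0.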

The nature of data set [2]: Assessment of chemical stability (RP-HPLC normalized purity). In kind it is physicochemical. The settings on record: 7 days, 40° C., Table 1; for Normalized purity after 7 days, 40° C., pH 4: pH 4, 0.2 mg/ml; for Normalized purity after 7 days, 40° C., pH 6: pH 6, 0.2 mg/ml; for Normalized purity after 7 days, 40° C., pH 7.5: pH 7.5, 0.2 mg/ml; for Normalized purity after 7 days, 40° C., pH 9: pH 9, 0.2 mg/ml. The procedure, abridged:
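Purity after 7 days at 40° C is expressed relative to T=0 (set to 100) for each pH. Samples at 0.2 mg/ml, pH 4, 6, 7.5 or 9, analyzed by RP-HPLC with UV 220 nm on C8 (ammonium formate) or C18 (TFA) gradients.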

Data set [3] deals with T1, human calcitonin receptor (hCTR2) (Homo sapiens, UniProt P30988).
T1 construct: expressed in transfected cells
T1 sequence (P30988 25-474): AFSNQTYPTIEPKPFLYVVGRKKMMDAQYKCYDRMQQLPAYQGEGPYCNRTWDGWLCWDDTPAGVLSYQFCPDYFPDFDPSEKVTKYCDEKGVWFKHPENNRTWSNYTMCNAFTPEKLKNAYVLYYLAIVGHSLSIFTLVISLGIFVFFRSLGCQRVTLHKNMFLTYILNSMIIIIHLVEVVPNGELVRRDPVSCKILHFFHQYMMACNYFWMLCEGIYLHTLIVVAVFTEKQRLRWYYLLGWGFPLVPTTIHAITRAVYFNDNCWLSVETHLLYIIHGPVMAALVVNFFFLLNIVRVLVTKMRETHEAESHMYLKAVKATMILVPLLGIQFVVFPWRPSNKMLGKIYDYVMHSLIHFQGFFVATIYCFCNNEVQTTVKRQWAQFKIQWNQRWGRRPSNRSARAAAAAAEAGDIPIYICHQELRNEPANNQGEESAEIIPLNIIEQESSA
The data set is described as follows: hCTR2 cAMP assay (AlphaScreen) in COS7 cells. The data set is classed as cell-based. The settings on record: cAMP induction, COS7 cells expressing hCTR2; Table 1; read-out: hCTR2 EC50. The source says: The cell line COS7, originating from African Green Monkey kidney fibroblast cells, was used for establishment of the stable cell lines described below. The COS7 cellular background was used due to it being RAMP naïve, and as such it provides the best available system for testing of the monomeric hCTR and different heterodimeric amylin receptor subtypes functionally generated by introduction of the individual RAMPs.
A cell line expressing the human calcitonin receptor (hCTR2) was generated in the COS7 cellular background as stable clones. In brief, hCTR2 (GI: 4502547) was amplified by PCR using primers encoding terminal restriction sites for subcloning. The 5′-end primers additionally encoded a near Kozak consensus sequence to ensure efficient translation. The fidelity of the DNA encoding the receptor was confirmed by DNA sequencing. The PCR products encoding the receptor were subcloned into a mammalian expression vector containing a neomycin (G418) resistance marker. The mammalian expression vector encoding the receptor was transfected into COS7 cells by a standard liposome transfection method. 48 hours post-transfection, cells were seeded for limited dilution cloning and selected with 1 mg/ml G418 in the culture medium. After 3 weeks, surviving colonies of hCTR2-expressing cells were picked, propagated and tested in the amylin efficacy assay as described in Example 3 below. One hCTR2-expressing clone was chosen for compound profiling.
In vitro activity of test peptides at the hCTR2 and hAMYR3 receptors was assessed by measuring the induction of cAMP following stimulation of the receptor using the AlphaScreen® cAMP Assay kit from Perkin-Elmer.
Briefly, COS7 cells expressing hCTR2 (see Example 2, above) were seeded at 30-40,000 cells per well in 96-well microtiter plates coated with 0.01% poly-L-lysine, and grown for 1 day in culture in 100 μl growth medium [DMEM, 10% FCS, Penicillin (100 IU/ml), Streptomycin (100 μg/ml)]. On the day of analysis, growth medium was removed and the cells were washed once with 200 μl Tyrode buffer [Tyrode's Salts (9.6 g/I), 10 mM HEPES, pH 7.4]. Cells were incubated in 100 μl Tyrode buffer containing increasing concentrations of test peptides, 100 µM IBMX and 0.1% casein for 15 min at 37° C. The reaction was stopped by carefully decanting off the compound/buffer medium and replacing it with lysis/detection buffer (80 μl 0.1% w/v BSA, 5 mM HEPES, 0.3% v/v Tween-20 in deionized water). After incubation at room temperature for 10 min., the cAMP content of the resulting cell lysate was estimated according to the AlphaScreen® cAMP Assay manufacturer's instructions. EC50 values were estimated by computer-aided curve fitting using the 4-parameter logistic (4PL) non-linear model.
A general note: Cyclic AMP is a second messenger, typically raised through Gs and lowered through Gi signalling.

In the case of `CC[C@H](C)[C@@H](C(=O)N[C@@H](CC(C)C)C(=O)N[C@@H](CO)C(=O)N[C@@H](CO)C(=O)N[C@H](C(=O)N[C@@H](CCC(=O)O)C(=O)N[C@H](C(=O)NCC(=O)N[C@@H](CO)C(=O)N[C@@H](CC(N)=O)C(=O)N[C@H](C(=O)N1CCC[C@H]1C(N)=O)[C@@H](C)O)C(C)C)[C@@H](C)O)N(C)C(=O)[C@H](C)NC(=O)CN(C)C(=O)[C@H](Cc1ccccc1)NC(=O)[C@H](CO)NC(=O)[C@H](CO)NC(=O)[C@H](CCCNC(=N)N)NC(=O)[C@H](Cc1c[nH]cn1)NC(=O)[C@H](CC(C)C)NC(=O)[C@H](Cc1ccccc1)NC(=O)[C@H](Cc1c[nH]cn1)NC(=O)[C@H](C)NC(=O)[C@H](CC(C)C)NC(=O)[C@H](CCCNC(=N)N)NC(=O)[C@H](CCC(N)=O)NC(=O)[C@@H](NC(=O)[C@H](C)NC(=O)[C@@H]1CSSC[C@H](NC(=O)[C@H](CCCNC(=N)N)NC(=O)CC[C@H](NC(=O)CCCCCCCCCCCCCCCCCCC(=O)O)C(=O)O)C(=O)N[C@@H](CC(N)=O)C(=O)N[C@@H]([C@@H](C)O)C(=O)N[C@@H](C)C(=O)N[C@@H]([C@@H](C)O)C(=O)N1)[C@@H](C)O` [Compound 16, [19CD]-isoGlu-R-C( )-NTAT-C( )-ATQRLAHFLHRSSF-Gly(Me)-A-Ile(Me)-LSSTEVGSNTP-NH2] ({C20 diacid-γGlu}-RCNTATCATQRLAHFLHRSSF[Sar]A[NMeI]LSSTEVGSNTP-NH2; disulfide 2-7), in data set [1], the “Fibrillation pH 4.0 (Ac)” value is reported as “FD”, the “Fibrillation pH 7.0 (His)” value was “FD” and the “Fibrillation pH 7.0 (Phos.)” value was “FND”. In addition, in data set [2], the “Normalized purity after 7 days, 40° C., pH 4” value is “A (A = >90%)”; the “Normalized purity after 7 days, 40° C., pH 6” value was “A (A = >90%)”; the “Normalized purity after 7 days, 40° C., pH 7.5” value is “A (A = >90%)”; the “Normalized purity after 7 days, 40° C., pH 9” value is “B (B = 70-90%)”. Also, the EC50 in data set [3] amounted to 0.073 nM.

Consider `CC[C@H](C)[C@@H](C(=O)N[C@@H](CC(C)C)C(=O)N[C@@H](CO)C(=O)N[C@@H](CO)C(=O)N[C@H](C(=O)N[C@@H](CCC(=O)O)C(=O)N[C@H](C(=O)NCC(=O)N[C@@H](CO)C(=O)N[C@@H](CC(N)=O)C(=O)N[C@H](C(=O)N1C[C@H](O)C[C@H]1C(N)=O)[C@@H](C)O)C(C)C)[C@@H](C)O)N(C)C(=O)[C@H](C)NC(=O)CN(C)C(=O)[C@H](Cc1ccccc1)NC(=O)[C@H](CO)NC(=O)[C@H](CO)NC(=O)[C@H](CCCNC(=N)N)NC(=O)[C@@H](NC(=O)[C@H](CC(C)C)NC(=O)[C@H](Cc1ccccc1)NC(=O)[C@H](Cc1c[nH]cn1)NC(=O)[C@H](C)NC(=O)[C@H](CC(C)C)NC(=O)[C@H](CCCNC(=N)N)NC(=O)[C@H](CCC(=O)O)NC(=O)[C@@H](NC(=O)[C@H](C)NC(=O)[C@@H]1CSSC[C@H](NC(=O)[C@H](CCCNC(=N)N)NC(=O)CC[C@H](NC(=O)CCCCCCCCCCCCCCCCCCC(=O)O)C(=O)O)C(=O)NCC(=O)N[C@@H]([C@@H](C)O)C(=O)N[C@@H](C)C(=O)N[C@@H]([C@@H](C)O)C(=O)N1)[C@@H](C)O)[C@@H](C)O` [Compound 18, [19CD]-isoGlu-R-C( )-GTAT-C( )-ATERLAHFLTRSSF-Gly(Me)-A-Ile(Me)-LSSTEVGSNT-Hyp-NH2] ({C20 diacid-γGlu}-RCGTATCATERLAHFLTRSSF[Sar]A[NMeI]LSSTEVGSNT[Hyp]-NH2; disulfide 2-7), for which, in data set [1], the “Fibrillation pH 4.0 (Ac)” value was “FND”, the “Fibrillation pH 7.0 (His)” value was “FD” and the “Fibrillation pH 7.0 (Phos.)” value is listed as “FD”. In addition, the EC50 in data set [3] amounted to 0.12 nM.

`CC[C@H](C)[C@@H](C(=O)N[C@@H](CC(C)C)C(=O)N[C@@H](CO)C(=O)N[C@@H](CO)C(=O)N[C@H](C(=O)N[C@@H](CCC(=O)O)C(=O)N[C@H](C(=O)NCC(=O)N[C@@H](CO)C(=O)N[C@@H](CC(N)=O)C(=O)N[C@H](C(=O)N1C[C@H](O)C[C@H]1C(N)=O)[C@@H](C)O)C(C)C)[C@@H](C)O)N(C)C(=O)[C@H](C)NC(=O)CN(C)C(=O)[C@H](Cc1ccccc1)NC(=O)[C@H](CO)NC(=O)[C@H](CO)NC(=O)[C@H](CCCNC(=N)N)NC(=O)[C@H](CCC(N)=O)NC(=O)[C@H](CC(C)C)NC(=O)[C@H](Cc1ccccc1)NC(=O)[C@H](Cc1c[nH]cn1)NC(=O)[C@H](C)NC(=O)[C@H](CC(C)C)NC(=O)[C@H](CCCNC(=N)N)NC(=O)[C@H](CCC(N)=O)NC(=O)[C@@H](NC(=O)[C@H](C)NC(=O)[C@@H]1CSSC[C@H](NC(=O)[C@H](CCCNC(=N)N)NC(=O)CC[C@H](NC(=O)CCCCCCCCCCCCCCCCCCC(=O)O)C(=O)O)C(=O)N[C@@H](CC(N)=O)C(=O)N[C@@H]([C@@H](C)O)C(=O)N[C@@H](C)C(=O)N[C@@H]([C@@H](C)O)C(=O)N1)[C@@H](C)O` [Compound 58, [19CD]-isoGlu-R-C( )-NTAT-C( )-ATQRLAHFLQRSSF-Gly(Me)-A-Ile(Me)-LSSTEVGSNT-Hyp-NH2] ({C20 diacid-γGlu}-RCNTATCATQRLAHFLQRSSF[Sar]A[NMeI]LSSTEVGSNT[Hyp]-NH2; disulfide 2-7): in data set [1], the “Fibrillation pH 4.0 (Ac)” value is listed as “FND”, the “Fibrillation pH 7.0 (His)” value is given as “FD” and the “Fibrillation pH 7.0 (Phos.)” value is recorded as “FND”. In data set [2], the “Normalized purity after 7 days, 40° C., pH 4” value is “A (A = >90%)”; the “Normalized purity after 7 days, 40° C., pH 6” value is “A (A = >90%)”; the “Normalized purity after 7 days, 40° C., pH 7.5” value is reported as “B (B = 70-90%)”; the “Normalized purity after 7 days, 40° C., pH 9” value is on record as “B (B = 70-90%)”. Further, the EC50 in data set [3] came to 0.05 nM.

In the case of `CC[C@H](C)[C@@H](C(=O)N[C@@H](CC(C)C)C(=O)N[C@@H](CO)C(=O)N[C@@H](CO)C(=O)N[C@H](C(=O)N[C@@H](CCC(=O)O)C(=O)N[C@H](C(=O)NCC(=O)N[C@@H](CO)C(=O)N[C@@H](CO)C(=O)N[C@H](C(=O)N1CCC[C@H]1C(N)=O)[C@@H](C)O)C(C)C)[C@@H](C)O)N(C)C(=O)[C@H](C)NC(=O)CN(C)C(=O)[C@H](Cc1ccccc1)NC(=O)[C@H](CO)NC(=O)[C@H](CO)NC(=O)[C@H](CCCNC(=N)N)NC(=O)[C@H](CCC(=O)O)NC(=O)[C@H](CC(C)C)NC(=O)[C@H](Cc1ccccc1)NC(=O)[C@H](Cc1c[nH]cn1)NC(=O)[C@H](C)NC(=O)[C@H](CC(C)C)NC(=O)[C@H](CCCNC(=N)N)NC(=O)[C@H](CCC(N)=O)NC(=O)[C@@H](NC(=O)[C@H](C)NC(=O)[C@@H]1CSSC[C@H](NC(=O)[C@H](CCCNC(=N)N)NC(=O)CC[C@H](NC(=O)CCCCCCCCCCCCCCCCCCC(=O)O)C(=O)O)C(=O)N[C@@H](CC(N)=O)C(=O)N[C@@H]([C@@H](C)O)C(=O)N[C@@H](C)C(=O)N[C@@H]([C@@H](C)O)C(=O)N1)[C@@H](C)O` [Compound 84, [19CD]-isoGlu-R-C( )-NTAT-C( )-ATQRLAHFLERSSF-Gly(Me)-A-Ile(Me)-LSSTEVGSSTP-NH2] ({C20 diacid-γGlu}-RCNTATCATQRLAHFLERSSF[Sar]A[NMeI]LSSTEVGSSTP-NH2; disulfide 2-7), the EC50 in data set [3] came to 0.15 nM.
